A value given as a limit tells only on which side of the number the result lay.

For test [1], the system named is renal cancer cell line (ACHN). Put plainly: Cancer proliferation inhibitory activity (SRB, GI50), ACHN. Conditions: Homo sapiens, 48 hours. Type of test: cell-based. From the text:
(§1) Particularly, the cancer proliferation inhibitory activity of the compounds of comparative examples (Ajoene and the compounds isosteric to Ajoene wherein R1 is allyl or benzyl) and the compounds of examples of the present invention (the compounds not isosteric to Ajoene wherein R^1 is phenyl) was investigated in human cancer cell lines (renal cancer cell line (ACHN), breast cancer cell line (MDA-MB-231), colorectal cancer cell line (HCT-15), prostate cancer cell line (PC-3), gastric cancer cell line (NUGC-3) and lung cancer cell line (NCl-H23)).
(§2) At this time, the cancer cell lines (renal cancer cell line (ACHN), breast cancer cell line (MDA-MB-231), colorectal cancer cell line (HCT-15), prostate cancer cell line (PC-3), gastric cancer cell line (NUGC-3) and lung cancer cell line (NCl-H23)) above were purchased from American Type Culture Collection (Manassas, Va., USA). Cells were cultured in RPMI 1640 supplemented with 10% fetal bovine serum, which were maintained 37° C. under 5% CO2 wet atmosphere. The cells were distributed in a 96-well plate, which was not treated (treated only with 0.1% DMSO) or treated with the compounds of examples of the present (0.1 μM to 10 μM). 48 hours later, the cells were fixed in 50% trichloroacetic acid, followed by staining with 1% acetic acid containing 0.4% sulphorodamine B dissolved therein. The non-conjugated dye was removed by washing with 1% acetic acid, and the protein conjugated dye was extracted with 10 mM Tris base (pH 10.5). Then, OD540 was measured with VersaMax microplate reader (Molecular devices, Sunnyvale, Calif., USA). GI50 was calculated by using GraphPad Prism software (GraphPad Software, Inc., San Diego, Calif., USA).
(§3) Based on the results obtained in experimental example 1-1 above, the derivatives wherein R^1 is phenyl were additionally synthesized. The cancer proliferation inhibitory activity of the derivatives was evaluated by the same manner as described in experimental example 1-1.

Test [2] relates to gastric cancer cell line (NUGC-3). Put plainly: Cancer proliferation inhibitory activity (SRB, GI50), NUGC-3. Type of test: cell-based. Conditions: Homo sapiens, 48 hours.
Description: as §1, §2, §3

Test [3] has as its system lung cancer cell line (NCl-H23). Put plainly: Cancer proliferation inhibitory activity (SRB, GI50), NCI-H23. Type of test: cell-based. Particulars: Homo sapiens, 48 hours.
Description: as §1, §2, §3

Another test addresses T1, HDAC 8 (Homo sapiens, UniProt Q9BY41).
T1 sequence (Q9BY41 1-377): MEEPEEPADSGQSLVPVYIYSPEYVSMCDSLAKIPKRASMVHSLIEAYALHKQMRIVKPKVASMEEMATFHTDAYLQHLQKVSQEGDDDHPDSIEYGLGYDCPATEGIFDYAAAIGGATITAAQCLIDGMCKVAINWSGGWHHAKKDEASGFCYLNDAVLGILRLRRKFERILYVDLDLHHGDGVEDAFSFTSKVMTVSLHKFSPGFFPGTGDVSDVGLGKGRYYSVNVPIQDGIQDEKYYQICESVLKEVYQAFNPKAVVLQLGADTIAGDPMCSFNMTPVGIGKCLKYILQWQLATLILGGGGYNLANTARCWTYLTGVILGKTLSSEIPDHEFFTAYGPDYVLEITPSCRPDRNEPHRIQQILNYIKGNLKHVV
In words: HDAC enzyme fluorescence assay, HDAC 8. The format is biochemical. Also on record: Inhibitory activity (%) HDAC 8: concentration or dose not given beside the values. Particulars: for Inhibitory activity (%) HDAC 8: (HDAC inhibitory activity of example compound/HDAC inhibitory activity of SAHA) × 100. The method, then: Particularly, HDAC enzyme analysis was performed based on a uniform fluorescence emission assay. First, the compounds of examples of the present invention or comparative example 1 were diluted at different concentrations, which were treated to the analysis buffer containing 25 mM HEPES (pH 8.0), 137 mM NaCl, 1 mM MgCl2 and 2.7 mM KCL, followed by culture of the recombinant HDAC enzyme. 10 minutes later, Boc-Lys(acetyl)-AMC, the fluorescence inducing substrate, was added thereto, followed by further culture at 37° C. At this time, the concentration of the fluorescence inducing substrate and the culture time were adjusted according to the isotypes of the HDAC enzyme. The reaction was terminated by treating trypsin at room temperature for 20 minutes. The fluorescence intensity was measured using a fluorescence analyzer at an excitation wavelength of 380 nm and an emission wavelength of 460 nm, respectively. The inhibition rate was calculated from the measured fluorescence intensity of each well with comparing to that of the control well. IC50 of the compound was calculated by analyzing the dose-reaction inhibition curve.
The HDAC 8 inhibitory activity was presented as percentage of relative activity by the inhibitory activity of SAHA (Vorinostat) used as a reference compound.

Test [4] has as its system prostate cancer cell line (PC-3). Put plainly: Cancer proliferation inhibitory activity (SRB, GI50), PC-3. Type of test: cell-based. Conditions: Homo sapiens, 48 hours.
Description: as §1, §2, §3

For test [5], the system named is colorectal cancer cell line (HCT-15). In words: Cancer proliferation inhibitory activity (SRB, GI50), HCT-15. Type of test: cell-based. Particulars: Homo sapiens, 48 hours.
Description: as §1, §2, §3

Test [6] deals with breast cancer cell line (MDA-MB-231). Put plainly: Cancer proliferation inhibitory activity (SRB, GI50), MDA-MB-231. Type of test: cell-based. Conditions: Homo sapiens, 48 hours.
Description: as §1, §2, §3

`[O-][S+](C/C=C\SSCc1ccc(Cl)cc1)c1ccccc1` (stereo not shown) [Example 12, (Z)-1-(4-chlorobenzyl)-2-(3-(phenylsulfinyl)prop-1-enyl)disulfane]: the GI50 – broadly, the concentration at which growth is held to half of that of the control – was determined as 2.95 µM in test [1]; 3.24 µM in test [2]; 3.51 µM in test [3]; 4.99 µM in test [4]; 5.48 µM in test [5]; 2.26 µM in test [6]. In addition, at HDAC 8, the “Inhibitory activity (%) HDAC 8” value was determined as 105.4%.
Consider `[O-][S+](C/C=C/SSCc1ccc(Cl)c(Cl)c1)c1ccccc1` (stereo not shown) [Example 13, (E)-1-(3,4-dichlorobenzyl)-2-(3-(phenylsulfinyl)prop-1-enyl)disulfane], for which the GI50 was 1.97 µM in test [1]; 1.77 µM in test [2]; 2.92 µM in test [3]; 2.3 µM in test [4]; 2.78 µM in test [5]; 7.5 µM in test [6]. Also, the “Inhibitory activity (%) HDAC 8” value at HDAC 8 worked out at 76.6%.
Turning to `[O-][S+](C/C=C\SSCc1ccc(Cl)c(Cl)c1)c1ccccc1` (stereo not shown) [Example 14, (Z)-1-(3,4-dichlorobenzyl)-2-(3-(phenylsulfinyl)prop-1-enyl)disulfane], the GI50 was 7.68 µM in test [1]; 8.51 µM in test [2]; 7.35 µM in test [3]; 4.55 µM in test [4]; greater than 10 µM in test [5]; 4.78 µM in test [6]. The “Inhibitory activity (%) HDAC 8” value at HDAC 8 worked out at 146.4%.
In the case of `C=CCSS/C=C/C[S+]([O-])c1cccc(OC)c1` (stereo not shown) [Example 15, (E)-1-allyl-2-(3-(3-methoxyphenylsulfinyl)prop-1-enyl)disulfane], the GI50 in test [1] amounted to 2.56 µM; in test [2], 2.95 µM; in test [3], 3.42 µM; in test [4], 3.02 µM; in test [5], 2.58 µM; in test [6] it was 4.51 µM. For the same molecule, the “Inhibitory activity (%) HDAC 8” value at HDAC 8 amounted to 84.6%.
`CCCSS/C=C/C[S+]([O-])c1cccc(OC)c1` (stereo not shown) [Example 17, (E)-1-(3-(3-methoxyphenylsulfinyl)prop-1-enyl)-2-propyldisulfane]: the GI50 was 1.57 µM in test [1]; 1.59 µM in test [2]; 1.58 µM in test [3]; 1.99 µM in test [4]; 2.17 µM in test [5]; 1.38 µM in test [6]. Also, on HDAC 8, the “Inhibitory activity (%) HDAC 8” value is recorded as 78.4%.
In the case of `COc1cccc([S+]([O-])C/C=C/SSCc2ccccc2)c1` (stereo not shown) [Example 19, (E)-1-benzyl-2-(3-(3-methoxyphenylsulfinyl)prop-1-enyl)disulfane], the GI50 in test [1] was 2.5 µM; in test [2], 2.34 µM; in test [3] it was 2.12 µM; in test [4] it was 1.44 µM; in test [5] it was 2.08 µM; in test [6], 1.77 µM. In addition, the “Inhibitory activity (%) HDAC 8” value at HDAC 8 came to 88.1%.
For `COc1cccc([S+]([O-])C/C=C\SSCc2ccccc2)c1` (stereo not shown) [Example 20, (Z)-1-benzyl-2-(3-(3-methoxyphenylsulfinyl)prop-1-enyl)disulfane], the GI50 in test [1] was 3.72 µM; in test [2], 3.78 µM; in test [3] it was 3.46 µM; in test [4] it was 2.96 µM; in test [5] it was 2.6 µM; in test [6] it was 4.34 µM. Moreover, the “Inhibitory activity (%) HDAC 8” value at HDAC 8 turned out to be 114.3%.
Consider `COc1cccc([S+]([O-])C/C=C/SSCc2ccc(F)cc2)c1` (stereo not shown) [Example 21, (E)-1-(4-fluorobenzyl)-2-(3-(3-methoxyphenylsulfinyl)prop-1-enyl)disulfane], for which the GI50 is 2.46 µM in test [1]; 1.56 µM in test [2]; 2.12 µM in test [3]; 1.97 µM in test [4]; 1.75 µM in test [5]; 2.02 µM in test [6]. The “Inhibitory activity (%) HDAC 8” value on HDAC 8 turned out to be 109.2%.
For the molecule `COc1cccc([S+]([O-])C/C=C\SSCc2ccc(F)cc2)c1` (stereo not shown) [Example 22, (Z)-1-(4-fluorobenzyl)-2-(3-(3-methoxyphenylsulfinyl)prop-1-enyl)disulfane], the concentration for 50% growth inhibition (GI50) was 3.85 µM in test [1]; 3.67 µM in test [2]; 2.71 µM in test [3]; 3.04 µM in test [4]; 3.01 µM in test [5]; 4.41 µM in test [6]. Besides, on HDAC 8, the “Inhibitory activity (%) HDAC 8” value was determined as 122.9%.
Turning to `COc1cccc([S+]([O-])C/C=C/SSCc2ccc(Cl)cc2)c1` (stereo not shown) [Example 23, (E)-1-(4-chlorobenzyl)-2-(3-(3-methoxyphenylsulfinyl)prop-1-enyl)disulfane], the concentration for 50% growth inhibition (GI50) was 5.47 µM in test [1]; 5.92 µM in test [2]; 4.85 µM in test [3]; 3.76 µM in test [4]; 4.37 µM in test [5]; 3.12 µM in test [6]. Besides, the “Inhibitory activity (%) HDAC 8” value at HDAC 8 came out at 72.6%.
`COc1cccc([S+]([O-])C/C=C\SSCc2ccc(Cl)c(Cl)c2)c1` (stereo not shown) [Example 26, (Z)-1-(3,4-dichlorobenzyl)-2-(3-(3-methoxyphenylsulfinyl)prop-1-enyl)disulfane]: the concentration for 50% growth inhibition (GI50) was greater than 10 µM in test [1]; 3.22 µM in test [2]; greater than 10 µM in test [3]; 6.67 µM in test [4]; 7.25 µM in test [5]; greater than 10 µM in test [6]. On HDAC 8, the “Inhibitory activity (%) HDAC 8” value is on record as 161.9%.
For the molecule `C=CCSS/C=C/C[S+]([O-])c1ccc(OC)cc1` (stereo not shown) [Example 27, (E)-1-allyl-2-(3-(4-methoxyphenylsulfinyl)prop-1-enyl)disulfane], the GI50 in test [1] was 3.86 µM; in test [2], 4.62 µM; in test [3] it was 3.91 µM; in test [4], 4.38 µM; in test [5], 6.61 µM; in test [6], 5.62 µM. On HDAC 8, the “Inhibitory activity (%) HDAC 8” value is 39.8%.
`C=CCSS/C=C\C[S+]([O-])c1ccc(OC)cc1` (stereo not shown) [Example 28, (Z)-1-allyl-2-(3-(4-methoxyphenylsulfinyl)prop-1-enyl)disulfane]: the concentration for 50% growth inhibition (GI50) in test [1] is 5.06 µM; in test [2] it was 3.77 µM; in test [3], 4.24 µM; in test [4], 4.47 µM; in test [5] it was 3.94 µM; in test [6], 7.28 µM. The “Inhibitory activity (%) HDAC 8” value at HDAC 8 amounted to 73.5%.
In the case of `CCCSS/C=C/C[S+]([O-])c1ccc(OC)cc1` (stereo not shown) [Example 29, (E)-1-(3-(4-methoxyphenylsulfinyl)prop-1-enyl)-2-propyldisulfane], the concentration for 50% growth inhibition (GI50) is 1.65 µM in test [1]; 2.04 µM in test [2]; 1.41 µM in test [3]; 2.41 µM in test [4]; 1.48 µM in test [5]; 2.2 µM in test [6]. Besides, the “Inhibitory activity (%) HDAC 8” value on HDAC 8 was found to be 69.9%.
As to `CCCSS/C=C\C[S+]([O-])c1ccc(OC)cc1` (stereo not shown) [Example 30, (Z)-1-(3-(4-methoxyphenylsulfinyl)prop-1-enyl)-2-propyldisulfane], the 50% growth inhibitory concentration (GI50) in test [1] was 3.23 µM; in test [2], 2.36 µM; in test [3] it was 3.58 µM; in test [4] it was 3.02 µM; in test [5], 2.43 µM; in test [6], 2.14 µM. Besides, the “Inhibitory activity (%) HDAC 8” value at HDAC 8 is listed as 52.9%. The IC50 (commonly the concentration that inhibits the measured activity by half) at HDAC 8 (recombinant HDAC enzyme, Boc-Lys(acetyl)-AMC, read-out: IC50 HDAC 8) was 0.29 µM.

The values are drawn from patent publication US11230525B2, “Organic sulfur compound, method for preparing same, and pharmaceutical composition for preventing or treating cancer or an inflammatory disease, containing same as active ingredient” (SOOKMYUNG WOMENS UNIVERSITY INDUSTRY-ACADEMIC COOPERATION …, priority 2016, dated 2022).
